Measured values published in US5616715A, “Dihydropyridine-3, 5-dicarboxylic acid ester derivatives” (Yamanouchi Pharmaceutical Co., Ltd., priority 1984, dated 1997).
Counter-ions that a name gives are not always drawn.

Experiments:
[1] = Hypotensive Effect in Anesthetized Rats; assay type: in vivo; details: for ED (30 mmHg): Rattus norvegicus, iv, urethane-anesthetized rats, dose required to lower mean blood pressure by 30 mmHg
Procedure: (2) Hypotensive Effect in Anesthetized Rats
Blood pressure was measured in urethane-anesthetized rats. The compound was intravenously administered in an increasing dose manner at an interval of 20 minutes. The doses of the compounds required to lower mean blood pressure by 30 mmHg (ED 30 mmHg) was calculated from the dose-response curves and summarized in Table 2.

coronary artery = assay: Coronary Vasodilating Effect in Anesthetized Dogs (direct intracoronary administration); assay type: in vivo; details: 1 μg directly into coronary artery; for Overall increase in coronary blood flow at 1 μg: area under the percent increase in coronary blood flow
Procedure: (1) Coronary Vasodilating Effect in Anesthetized Dogs
In open-chest dogs anesthetized with 30 mg/kg i.v. of pentobarbital sodium, arterial blood from the carotid artery was led to circumflex branch of the left coronary artery by a extracorporeal loop. A servocontrolled pure (model 1215D, Harvard Apparatus) was incorporated in the circuit to maintain a constant perfusion pressure of 120 mmHg by means of a pump controller (SCS-22, Data Graph Co., Tokuya Tukada et al., Folia Pharmacol. Japon, 74, 59p, 1978). An electromagnetic flow probe of extracorporeal type (MF-25, Nihon Koden) was also inserted in the circuit to record coronary blood flow. A dose of 1 μg of the compound was administered directly into the coronary artery and then coronary blood flow was monitored until the blood flow returned to the pretreatment value. And then, the area under the percent increase in coronary blood flow after intracoronary injection of 1 μg of the compound was calculated and used as an index of the overall increase in coronary blood flow.

Acute Toxicity in Mice = details: mouse, in vivo; oral, six weeks old male ICR mice, suspended in 0.5% methylcellulose; Litchfield & Wilcoxon
Procedure: (3) Acute Toxicity in Mice
Six weeks old and male ICR mice weighing 27 to 29 g were used. The compound was suspended in 0.5% methylcellulose solution and administered orally to mice. The LD50 values of the compounds were calculated by the method of Litchfield & Wilcoxon (Journal of Pharmacol. & Exp. Therap., 96, 99-113, 1949) and summarized in Table 3.

[2] = U.S. Pat. No. 4,220,649; U. K. Patent No. 2,014,134; cited from earlier work

## COC(=O)C1=C(C)NC(C)=C(C(=O)OC2CCN(Cc3ccccc3)C2)C1c1cccc([N+](=O)[O-])c1 (racemic) [Diastereoisomer B (dl form) hydrochloride]
[1]
  ED (30 mmHg): 0.14 mg/kg
Coronary artery
  Duration of the action: 5 min
  Overall increase in coronary blood flow at 1 μg: 120 ± 28 %, min.

## COC(=O)C1=C(C)NC(C)=C(C(=O)OC2CCN(Cc3ccccc3)C2)C1c1cccc([N+](=O)[O-])c1 (racemic) [Equivalent mixture of the hydrochlorides of diastereoisomers]
Coronary artery
  Duration of the action: 10 min
  Overall increase in coronary blood flow at 1 μg: 129 ± 47 %, min.

## COC(=O)C1=C(C)NC(C)=C(C(=O)O[C@H]2CCN(Cc3ccccc3)C2)C1c1cccc([N+](=O)[O-])c1 (single isomer, unassigned) [Diastereoisomer A (d form) hydrochloride]
Acute Toxicity in Mice
  LD50: 190 mg/kg
Coronary artery
  Duration of the action: 120 min
  Overall increase in coronary blood flow at 1 μg: 4559 ± 894 %, min.

## COC(=O)C1=C(C)NC(C)=C(C(=O)OC2CCN(Cc3ccccc3)C2)C1c1cccc([N+](=O)[O-])c1 (single isomer, unassigned) [Diastereoisomer A (dl form) hydrochloride, 2,6-dimethyl-4-(3-nitro-phenyl)-1,4-dihydropyridine-3,5-dicarboxylic acid 3-(1-benzylpyrrolidin-3-yl)ester 5-methyl ester]
Acute Toxicity in Mice
  LD50: 295 mg/kg
[1]
  ED (30 mmHg): 0.002 mg/kg
[1]; anesthetized rats, i.v.
  hypotensive activity, potency ratio to diastereoisomer B hydrochloride: about 70 times
Coronary artery
  Duration of the action: 60 min
  Overall increase in coronary blood flow at 1 μg: 1816 ± 377 %, min.

## COC(=O)C1=C(C)NC(C)=C(C(=O)OC2CCN(Cc3ccccc3)C2)C1c1cccc([N+](=O)[O-])c1 (stereo not drawn) [YM-09730, 2,6-dimethyl-4-(3-nitropheny)-1,4-dihydropyridine-3,5-dicarboxylic acid 3-(1-benzylpyrrolidin-3-yl)ester 5-methyl ester]
[2]
  duration of the vasodilating and hypotensive effect: prolonged effect
  vasodilating activity and hypotensive activity: has a vasodilating activity and a hypotensive activity
